Measured values from US20230123334A1, “AMINO LIPID COMPOUND, PREPARATION METHOD THEREFOR, AND APPLICATION THEREOF” (SHENZHEN SHENXIN BIOTECHNOLOGY CO., LTD., priority 2020, published 2023).

Test system: HEK293 cells
Test: Preliminary screening as DNA vectors, GFP transfection of HEK293 cells
Format: cell-based
Conditions: amino lipid/DOPE liposome with 75 ng plasmid DNA (psin-EGFP-IRES-Puro); number of GFP-expressing cells divided by total nuclei (Hoechst)
How it was run: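 Lipid + DOPE liposomes (NaOAc, pH 5.6) complexed w/ 75 ng psin-EGFP-IRES-Puro, 30 min RT; added to 3-5×10^4 HEK293/well, 37° C. Hoechst 0.2 μg/mL at 20-24 h, imaged after further 20-24 h. Efficiency = GFP+ cells / total nuclei.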

Row | SMILES | Absolute DNA transfection efficiency in HEK293 cells
1 | CCCCCCCCCSc1nc(NCCCCCCCC)nc(NCCN2CCCC2)n1 [S9N8 D3] | 37.6%
2 | CCCCCCCCCCCCCCSc1nc(NCCCN2CCOCC2)nc(SCCCCCCC)n1 [S7S14 D8] | 11.0%
3 | CCCCCCCCCCCCCCCCCCSc1nc(NCCCCCCCCCCC)nc(NCCN2CCOCC2)n1 [S18N11 D2] | 1.4%
4 | CCCCCCCSc1nc(NCCCCCC)nc(NCCCN(C)C)n1 [S7N6 D6] | 27.2%
5 | CCCCCCCCCCCCNc1nc(NCCN2CCN(C)CC2)nc(SCCCCCC)n1 [S6N12 D5] | 25.9%
6 | CCCCCCCCSc1nc(NCCCCCCC)nc(NCCN2CCN(C)CC2)n1 [S8N7 D5] | 3.6%
7 | CCCCCCCCCCCCCCCSc1nc(NCCCCCCCCCCCCC)nc(NCCN(CC)CC)n1 [S15N13 D7] | 5.5%
8 | CCCCCCCCCCCCCCCNc1nc(NCCN(C)C)nc(SCCCCCCCCCCCCCCC)n1 [S15N15 D1] | 0.6%
9 | CCCCCCCCCCCNc1nc(NCCN2CCCCC2)nc(SCCCCCC)n1 [S6N11 D4] | 3.3%
10 | CCCCCCCCCCCCCNc1nc(NCCN2CCN(C)CC2)nc(SCCCCCCCC)n1 [S8N13 D5] | 28.3%
11 | CCCCCCCCCCCCSc1nc(NCCN2CCCC2)nc(SCCCCCC)n1 [S6S12 D3] | 4.3%
12 | CCCCCCCCCCCCCCCCCCSc1nc(NCCCCCCCCC)nc(NCC2CCN(C)CC2)n1 [S18N9 D10] | 4.5%
13 | CCCCCCCCCCCCCNc1nc(NCCCN2CCOCC2)nc(SCCCCCCCCC)n1 [S9N13 D8] | 11.3%
14 | CCCCCCCCCNc1nc(NCCN(CC)CC)nc(SCCCCCCCC)n1 [S8N9 D7] | 26.0%
15 | CCCCCCCCCCCCCCCCNc1nc(NCCN(CC)CC)nc(SCCCCCCCCCCC)n1 [S11N16 D7] | 1.7%
16 | CCCCCCCCCCCCNc1nc(NCCN2CCCCC2)nc(SCCCCCCCC)n1 [S8N12 D4] | 7.6%
17 | CCCCCCCCCCCCCCCSc1nc(NCC2CCN(C)CC2)nc(SCCCCCC)n1 [S6S15 D10] | 34.5%
18 | CCCCCCCCCCCCNc1nc(NCCCN(C)C)nc(SCCCCCCCCCC)n1 [S10N12 D6] | 19.8%
19 | CCCCCCCCCCCCCCCCCCSc1nc(NCCCCCCCCCCCCC)nc(NCCN2CCN(C)CC2)n1 [S18N13 D5] | 0.0%
20 | CCCCCCCCCCCCCNc1nc(NCCCN(C)C)nc(SCCCCCCCCC)n1 [S9N13 D6] | 31.8%
21 | CCCCCCCCCCCCCCCCCCSc1nc(NCCCCCCC)nc(NCC2CCN(C)CC2)n1 [S18N7 D10] | 13.5%
22 | CCCCCCCCCCCCCCCCSc1nc(NCCCN2CCN(C)CC2)nc(SCCCCCC)n1 [S6S16 D9] | 3.9%
23 | CCCCCCCCCCCCCCSc1nc(NCCCCCC)nc(NCCN(C)C)n1 [S14N6 D1] | 24.1%
24 | CCCCCCCCCCCCN(CCCCCCCCCCCC)c1nc(NCCN2CCCC2)nc(SCCCCCCCCCCC)n1 [S11^2N12 D3] | 0.0%

Row | SMILES | Absolute DNA transfection efficiency in HEK293 cells
25 | CCCCCCCCCCSc1nc(NCCCCCCC)nc(NCCN2CCN(C)CC2)n1 [S10N7 D5] | 7.5%
26 | CCCCCCCCCCCCCCCCCCSc1nc(NCCCCCCCCCCCCC)nc(NCCN(CC)CC)n1 [S18N13 D7] | 0.0%
27 | CCCCCCCCCCCCCCSc1nc(NCCCCCCCCC)nc(NCCN2CCN(C)CC2)n1 [S14N9 D5] | 16.9%
28 | CCCCCCCCCNc1nc(NCCCN2CCN(C)CC2)nc(SCCCCCCCC)n1 [S8N9 D9] | 32.1%
29 | CCCCCCCCCCCCCCCCCCNc1nc(NCCN2CCCCC2)nc(SCCCCCCCCCCCCCCCC)n1 [S16N18 D4] | 0.2%
30 | CCCCCCCCSc1nc(NCCCCCCC)nc(NCCN(C)C)n1 [S8N7 D1] | 3.0%
31 | CCCCCCCCCCSc1nc(NCCCN2CCOCC2)nc(SCCCCCCC)n1 [S7S10 D8] | 18.0%
32 | CCCCCCCCCCCCCCCCNc1nc(NCC2CCN(C)CC2)nc(SCCCCCC)n1 [S6N16 D10] | 19.7%
33 | CCCCCCCCCSc1nc(NCCN2CCCCC2)nc(SCCCCCCCC)n1 [S8S9 D4] | 13.2%
34 | CCCCCCCCCCCCCCCNc1nc(NCCCN2CCOCC2)nc(SCCCCCCCC)n1 [S8N15 D8] | 7.7%
35 | CCCCCCCCCCCSc1nc(NCCCN(C)C)nc(SCCCCCCC)n1 [S7S11 D6] | 28.7%
36 | CCCCCCCCCCCCCCCCCCSc1nc(NCCCN2CCN(C)CC2)nc(N(CCCCCCCCCCCC)CCCCCCCCCCCC)n1 [S18^2N12 D9] | 0.0%
37 | CCCCCCCCCCCCCNc1nc(NCCN2CCOCC2)nc(SCCCCCCCCCCC)n1 [S11N13 D2] | 5.5%
38 | CCCCCCCCCNc1nc(NCC2CCN(C)CC2)nc(SCCCCCCCCC)n1 [S9N9 D10] | 34.5%
39 | CCCCCCCCCCCCCNc1nc(NCCCN2CCOCC2)nc(SCCCCCC)n1 [S6N13 D8] | 4.9%
40 | CCCCCCCCNc1nc(NCCCN2CCOCC2)nc(SCCCCCC)n1 [S6N8 D8] | 0.0%
41 | CCCCCCCCCCCCCCSc1nc(NCCCN2CCN(C)CC2)nc(SCCCCCC)n1 [S6S14 D9] | 4.1%
42 | CCCCCCCCCCCNc1nc(NCCN2CCCCC2)nc(SCCCCCCCCCCC)n1 [S11N11 D4] | 1.0%
43 | CCCCCCCCNc1nc(NCCN(CC)CC)nc(SCCCCCC)n1 [S6N8 D7] | 0.9%
44 | CCCCCCCCCCCCCCSc1nc(NCCN2CCOCC2)nc(SCCCCCC)n1 [S6S14 D2] | 11.1%
45 | CCCCCCCCCCCCCCCNc1nc(NCCN(C)C)nc(SCCCCCCCCCC)n1 [S10N15 D1] | 4.8%
46 | CCCCCCCCCCCCNc1nc(NCCN2CCOCC2)nc(SCCCCCC)n1 [S6N12 D2] | 0.9%
47 | CCCCCCCCCCCCCCCSc1nc(NCCCN2CCOCC2)nc(SCCCCCCC)n1 [S7S15 D8] | 10.9%
48 | CCCCCCCCCNc1nc(NCCCN2CCN(C)CC2)nc(SCCCCCC)n1 [S6N9 D9] | 0.8%

Row | SMILES | Absolute DNA transfection efficiency in HEK293 cells
49 | CCCCCCCCCCCCCCCSc1nc(NCCCCCCCC)nc(NCCN2CCN(C)CC2)n1 [S15N8 D5] | 17.3%
50 | CCCCCCCCCCCCCCCCNc1nc(NCCCN(C)C)nc(SCCCCCCCCCCCCCC)n1 [S14N16 D6] | 0.8%
51 | CCCCCCCCCCCCCCCCCCNc1nc(NCCN(C)C)nc(SCCCCCCCCC)n1 [S9N18 D1] | 24.2%
52 | CCCCCCCNc1nc(NCCN2CCOCC2)nc(SCCCCCCC)n1 [S7N7 D2] | 2.5%
53 | CCCCCCCCCCCCCCCCCCSc1nc(NCCCCCCCC)nc(NCCN2CCN(C)CC2)n1 [S18N8 D5] | 13.6%
54 | CCCCCCCCCSc1nc(NCCCCCC)nc(NCCCN2CCOCC2)n1 [S9N6 D8] | 7.8%
55 | CCCCCCCCCCCCCNc1nc(NCCCN2CCOCC2)nc(SCCCCCCCCCC)n1 [S10N13 D8] | 5.7%
56 | CCCCCCCCCCCCCCCCNc1nc(NCCN2CCCCC2)nc(SCCCCCCCCC)n1 [S9N16 D4] | 8.1%
57 | CCCCCCCCSc1nc(NCCCCCC)nc(NCCN2CCOCC2)n1 [S8N6 D2] | 0.2%
58 | CCCCCCCCCCCCCCSc1nc(NCCCCCCC)nc(NCCCN2CCN(C)CC2)n1 [S14N7 D9] | 16.1%
59 | CCCCCCCCCCSc1nc(NCC2CCN(C)CC2)nc(SCCCCCCC)n1 [S7S10 D10] | 25.2%
60 | CCCCCCCCCCCCN(CCCCCCCCCCCC)c1nc(NCCCN(C)C)nc(SCCCCCCCCC)n1 [S9^2N12 D6] | 1.1%
61 | CCCCCCCCCSc1nc(NCCCCCCC)nc(NCCN2CCN(C)CC2)n1 [S9N7 D5] | 18.3%
62 | CCCCCCCCCCCCCCCCCCSc1nc(NCCCCCCCC)nc(NCCCN2CCN(C)CC2)n1 [S18N8 D9] | 6.6%
63 | CCCCCCCCCCCCCCCSc1nc(NCCN2CCCCC2)nc(N(CCCCCCCCCCCC)CCCCCCCCCCCC)n1 [S15^2N12 D4] | 0.0%
64 | CCCCCCCCCCCCCCCCCCNc1nc(NCCCN(C)C)nc(SCCCCCCCCCCC)n1 [S11N18 D6] | 21.7%
65 | CCCCCCCSc1nc(NCCN2CCOCC2)nc(SCCCCCC)n1 [S6S7 D2] | 1.2%
66 | CCCCCCCCCCSc1nc(NCCCCCCCCC)nc(NCCCN2CCN(C)CC2)n1 [S10N9 D9] | 12.0%
67 | CCCCCCCCCCSc1nc(NCCCCCCC)nc(NCC2CCN(C)CC2)n1 [S10N7 D10] | 1.1%
68 | CCCCCCCCCCCCCCCCCCSc1nc(NCCCCCCCCCCCC)nc(NCCCN2CCN(C)CC2)n1 [S18N12 D9] | 0.0%
69 | CCCCCCCCCCCCCCSc1nc(NCCCCCC)nc(NCCCN2CCN(C)CC2)n1 [S14N6 D9] | 17.4%
70 | CCCCCCCCCCCCCCCCCCSc1nc(NCCN2CCN(C)CC2)nc(N(CCCCCCCCCCCC)CCCCCCCCCCCC)n1 [S18^2N12 D5] | 0.0%
71 | CCCCCCCCCCCCCCCCNc1nc(NCCN2CCOCC2)nc(SCCCCCCC)n1 [S7N16 D2] | 12.9%
72 | CCCCCCCCCCCCSc1nc(NCCCCCC)nc(NCCN(C)C)n1 [S12N6 D1] | 0.3%
